Assay results: the supplement of paper PMC13380429

Columns and labels:
Conditions in all cases: 72 h
[1] = tested on: U2OS; assay: cell viability relative to DMSO; higher = less toxic
[2] = tested on: Calu-3; assay: as above
[3] = tested on: Caco-2; assay: as above
[4] = tested on: Vero E6; assay: as above
[5] = tested on: HepG2; assay: as above
[6] = tested on: U2OS; assay: relative viability EC50 (midpoint between 100% and the lowest measured viability); higher = less toxic
[7] = tested on: Calu-3; assay: as above
[8] = tested on: Caco-2; assay: as above
[9] = tested on: Vero E6; assay: as above
[10] = tested on: HepG2; assay: as above
[11] = tested on: U2OS; assay: drug sensitivity score (DSS) for viability; higher = more toxic; extreme values may be limits of the assay
[12] = tested on: Calu-3; assay: as above
[13] = tested on: Caco-2; assay: as above
[14] = tested on: Vero E6; assay: as above
[15] = tested on: HepG2; assay: as above

Row | SMILES | cell viability ([1]; 1 nM) | cell viability ([1]; 10 nM) | cell viability ([1]; 100 nM) | cell viability ([1]; 1000 nM) | cell viability ([1]; 10000 nM) | cell viability ([2]; 1 nM) | cell viability ([2]; 10 nM) | cell viability ([2]; 100 nM) | cell viability ([2]; 1000 nM) | cell viability ([2]; 10000 nM) | cell viability ([3]; 1 nM) | cell viability ([3]; 10 nM) | cell viability ([3]; 100 nM) | cell viability ([3]; 1000 nM) | cell viability ([3]; 10000 nM) | cell viability ([4]; 1 nM) | cell viability ([4]; 10 nM) | cell viability ([4]; 100 nM) | cell viability ([4]; 1000 nM) | cell viability ([4]; 10000 nM) | cell viability ([5]; 1 nM) | cell viability ([5]; 10 nM) | cell viability ([5]; 100 nM) | cell viability ([5]; 1000 nM) | cell viability ([5]; 10000 nM) | relative viability EC50 [6] | relative viability EC50 [7] | relative viability EC50 [8] | relative viability EC50 [9] | relative viability EC50 [10] | drug sensitivity score [11] | drug sensitivity score [12] | drug sensitivity score [13] | drug sensitivity score [14] | drug sensitivity score [15]
1 | COc1ccc(Cl)cc1[C@]1(F)C(=O)Nc2cc(C(F)(F)F)ccc21 [flindokalner] | 96.9% | 102% | 97.3% | 97.8% | 95.2% | 103% | 91.3% | 96.3% | 96.9% | 93.9% | 95.2% | 102% | 97.6% | 101% | 88.7% | 97.7% | 96.1% | 98.8% | 95.6% | 101% | 103% | 96.3% | 103% | 100% | 95.2% | > 10 µM | > 10 µM | > 10 µM | > 10 µM | > 10 µM | 0 | 0 | 0 | 0 | 0
2 | CNC(=O)[C@@H](Cc1ccccc1)N(C)C(=O)[C@@H](Cc1ccc2ccccc2c1)N(C)C(=O)/C=C/CC(C)(C)N [tabimorelin] | 99.9% | 101% | 96.8% | 103% | 98.3% | 96.4% | 100% | 100% | 104% | 88.2% | 99.8% | 104% | 103% | 95.4% | 92.3% | 95.8% | 102% | 101% | 102% | 99.1% | 105% | 96.5% | 106% | 87.3% | 96.5% | > 10 µM | > 10 µM | > 10 µM | > 10 µM | > 10 µM | 0 | 0 | 0 | 0 | 0.6
3 | COc1ccc(C2C(=O)c3ccccc3C2=O)cc1 [anisindione] | 101% | 97.8% | 102% | 106% | 105% | 112% | 106% | 108% | 95.7% | 108% | 101% | 93.8% | 100% | 98.3% | 95.3% | 95.1% | 92.1% | 94.7% | 89.5% | 105% | 107% | 111% | 105% | 108% | 94.7% | > 10 µM | > 10 µM | > 10 µM | > 10 µM | > 10 µM | 0 | 0 | 0 | 0 | 0
4 | CC(=O)N[C@@H](C=O)[C@@H](O)[C@H](O)[C@H](O)CO [N-acetyl-D-glucosamine] | 102% | 99.7% | 102% | 97.3% | 102% | 103% | 111% | 101% | 93% | 95.9% | 93.3% | 97.6% | 113% | 102% | 107% | 100% | 110% | 104% | 106% | 87.5% | 91% | 85.7% | 94% | 94.7% | 87.3% | > 10 µM | > 10 µM | > 10 µM | > 10 µM | > 10 µM | 0 | 0 | 0 | 0 | 0
5 | CCOC(=O)c1cnc2c(cnn2CC)c1NN=C(C)C [etazolate] | 101% | 94.7% | 97.1% | 96.6% | 97.7% | 102% | 101% | 96.2% | 94.3% | 90.9% | 100% | 96.7% | 102% | 99.6% | 92.9% | 96.9% | 93.5% | 96.5% | 98.9% | 85.1% | 94.4% | 93% | 96.6% | 106% | 88.4% | > 10 µM | > 10 µM | > 10 µM | > 10 µM | > 10 µM | 0 | 0 | 0 | 0.3 | 0
6 | CCCCNc1nc(N)c2[nH]c(=O)n(Cc3ccc(OCCN(C)C)nc3)c2n1 [DSR-6434] | 96.9% | 97.9% | 99% | 101% | 97% | 90.4% | 104% | 95.2% | 89.6% | 101% | 93.3% | 98.6% | 92.7% | 100% | 95.9% | 97.6% | 99.1% | 98.8% | 93.6% | 96.3% | 103% | 102% | 91% | 94.4% | 97.1% | > 10 µM | > 10 µM | > 10 µM | > 10 µM | > 10 µM | 0 | 0 | 0 | 0 | 0
7 | CSc1ccc(OCc2ncc([N+](=O)[O-])n2C)cc1 [fexinidazole] | 98.3% | 103% | 99.7% | 97.1% | 98.5% | 100% | 98.5% | 78.6% | 101% | 97.9% | 106% | 104% | 105% | 96.7% | 96.9% | 103% | 101% | 99.7% | 101% | 97% | 92.7% | 85.9% | 104% | 105% | 88.4% | > 10 µM | > 10 µM | > 10 µM | > 10 µM | > 10 µM | 0 | 0 | 0 | 0 | 0
